Data: article PMC8551334 (Scientific Reports, 2021)
In brackets after ≈: the same amount, converted by molar mass. Like-named read-outs stand apart in the source and are kept apart here.

Legend:
EVA-71 = conditions: cited from earlier work
DENV-3 [1] = assay: FACS neutralization test (FNT); format: cell-based, dengue virus; conditions: for FACS gating percentage (FITC-positive population): 10,000 events
Description: Vero cells were seeded in 24 well plates at a density of 1 × 10^5 cells/well and incubated overnight. The antiviral assays were done using MOI 0.5 DENV-3, and FNT was carried out 48 h post-infection. Viral infected cells were harvested by trypsinization and centrifugation (1500 rpm, 5 min). Harvested cells were washed with PBS and fixed with 250 µL of BD Cytofix/Cytoperm™ Fixation/Permeabilization solution kit with BD GolgiStop™ (BD Biosciences, USA) solution and incubated on ice for 20 min in the dark. The cells were centrifuged at 3000 rpm for 2 min and washed two times with stain buffer (PBS + 5%FBS). Staining was performed with 50 µL of anti-dengue virus type III primary antibody, clone 5D4-11 (MAB8703 Sigma-Aldrich, USA), diluted in Cytoperm/Cytowash solution at a ratio of 1:1000 and incubated for 1 h on ice. After that, the cells were washed and stained with 50 µL of FITC-conjugated secondary antibody (Sigma-Aldrich, USA) diluted in Cytoperm/Cytowash solution at a ratio of 1:1000 and incubated for 1 h on ice in the dark. The samples were analyzed in a BD FACSCalibur flow cytometer (BD Biosciences, USA) using BD Cellquest pro software. For each sample, 10,000 events were collected, and the percent reduction in the number of infected cells was calculated using the following equation. Percentageofinhibition%=(C-T)/C×100% where, C is the percentage of viral infected cells among the 10,000 events without flavonoid treatment (control). T is the percentage of infected cells among the 10,000 events with the respective flavonoid treatment.
Percent reduction in virus-infected cells was represented as the mean ± standard error of the mean (SEM) from triplicate assays determined from three independent experiments.

DENV-3 progeny [2] = assay: Post-infection assay, intracellular DENV-3 progeny, FFURA; format: cell-based, dengue virus; conditions: for IC50: 48 h treatment, mean ± SEM, read-out: IC50 against DENV-3 progeny, FFURA
Description: (§1) The antiviral activity of flavonoids was determined by measuring the reduction in the number of DENV infectious foci after treatment. The antiviral assays were performed based on Zandi et al.[14] with minor modifications. Briefly, a confluent monolayer of Vero cells seeded in 24-well plates was treated with flavonoids before or after or with the virus infection and incubated for 4 days. The virus foci were visualized using immunostaining. The flavonoids' antiviral activities were determined by calculating the percentage of foci reduction (%RF) according to the following equation: Percentageofinhibition%=(C-T)/C×100% where, C is the number of foci without the flavonoid treatment (control). T is the number of foci with the respective flavonoid treatment.
(§2) To determine the activity of flavonoids in inhibiting the intracellular viral progeny, Vero cells (1 × 10^5 cells/well) in a 24-wells plate were infected with DENV-3 (MOI = 0.1) for 1 h at 37 °C. […] After 48 h, the viral supernatant was collected, and twofold dilution was used to reinfect fresh monolayer of Vero cells, and the reduction in viral titer was quantified using FFURA and qRT-PCR.
(§3) The maximum non-toxic dose (MNTD80) and 50% of inhibition (IC50) of flavonoids in Vero cells were calculated using Prism software (GraphPadPrism8, CA, USA) by applying four-parameter logistic non-linear regression model. The selectivity index (SI) was calculated as SI = CC50/IC50. Data presented are the mean ± SEM of three independent experiments. The student t-test was used to analyze the antiviral activity of flavonoids compared to a positive control (*p < 0.05, **p < 0.01, ***p < 0.001, ****p < 0.0001).

DENV-3 [3] = assay: Time course assay for virucidal activity; format: cell-based, dengue virus; conditions: for Time taken to achieve 50% viral infectivity inhibition: co-incubation with DENV-3
Description: Vero cells (1 × 10^5 cells/well) were grown overnight in a 24-well plate. […] Cells were infected with the flavonoid-treated virus and incubated at 37 °C for 1 h. Then, the unabsorbed virus was removed, and the cells were washed and overlaid with 1 mL of overlay medium. After 4 days, the reduction in foci was determined by immunostaining.

DENV-2 = assay: Virucidal assay against DENV-2, FFURA; format: cell-based; conditions: Dengue virus, DENV2; read-out: Viral infectivity inhibition, DENV-2
Description: as §1
(§4) After 1 h, the flavonoid-treated virus was used to infect Vero cells at 37 °C for 1 h. Then, the unabsorbed virus was removed, and the cells were washed and overlaid with 1 mL of overlay medium. After 4 days, the reduction in foci was determined by immunostaining. Another parallel experiment was carried out by replacing the overlay medium with DMEM supplemented with 2% FBS to determine the reduction in viral RNA copy number by qRT-PCR as previously described.

DENV-3 [4] = assay: Entry assay; format: cell-based, dengue virus
Description: Pre-chilled DENV-3 (80 FFU/well) in the absence of flavonoids were added to the pre-chilled Vero cells and incubated at 4 °C to allow virus attachment. […] After that, the medium containing flavonoids was removed, and Vero cells were washed and treated with acidic PBS (pH 3) for 60 s to inactivate the extracellular virus. After 60 s, the acidic PBS was neutralized by alkaline PBS (pH 11) in each well. Next, cells were then washed with serum-free media and overlaid with 1 mL of overlay medium. After 4 days, the reduction in foci was determined by immunostaining.

DENV-4 = assay: Virucidal assay against DENV-4, FFURA; format: cell-based; conditions: Dengue virus, DENV4; read-out: Viral infectivity inhibition, DENV-4
Description: as §1, §4

Vero cells [5] = assay: Cytotoxicity of flavonoids in Vero cells by MTS assay; format: cell-based, African green monkey; conditions: 48 h; for Concentrations up to which no significant cytotoxic effects were seen: African green monkey; for MNTD80 (maximum non-toxic dose, 80% of cells viable): Vero cells, MTS assay, mean ± SEM
Description: (§5) The cytotoxic potential of flavonoids in Vero cells was assessed by MTS assay. Briefly, confluent Vero cells in a 96 well plate were treated with different concentrations of flavonoids in triplicates with DMEM containing 2% FBS. After 2 days, 20 μL of 3-(4,5-Dimethylthiazol-2-yl)-5-(3-carboxymethoxyphenyl)-2-(4-sulfophenyl)-2H-tetrazolium (MTS) reagent (Promega, France) was added to each well. After 1 h of incubation at 37 °C, the cells were agitated, and the absorbance was measured at 490 nm in a microplate reader (Tecan, Infinite M2000, Switzerland). Maximum non-toxic dose (MNTD80) and 50% cytotoxic concentration (CC50) were calculated by non-linear regression using prism software (GraphPadPrism8, USA).
as §3

[6] = as above; format: cell-based, African green monkey; conditions: African green monkey
Description: as §5, §3

DENV-3 [7] = assay: Attachment assay; format: cell-based, dengue virus
Description: Vero cells (1 × 10^5 cells/well) were grown overnight in a 24-well plate. […] After 1 h, the flavonoid-treated virus is incubated on ice for 15 min. Next, pre-chilled Vero cells were infected with the pre-chilled flavonoid-treated virus at 4 °C for 1 h to allow virus attachment. Then, the unabsorbed virus was removed, and the cells were washed and overlaid with 1 mL of overlay medium. After 4 days, the reduction in foci was determined by immunostaining.

DENV-1 = assay: Virucidal assay against DENV-1, FFURA; format: cell-based; conditions: Dengue virus, DENV1; read-out: Viral infectivity inhibition, DENV-1
Description: as §1, §4

DENV-3 progeny [8] = assay: Post-infection assay, intracellular DENV-3 progeny, qRT-PCR; format: cell-based, dengue virus; conditions: for IC50: Dengue virus, DENV3, 48 h treatment, mean ± SEM, read-out: IC50 against DENV-3 progeny, qRT-PCR
Description: (§6) Viral RNA extraction was performed using QIAamp^R Viral RNA extraction kit (QIAGEN, Germany), and viral RNA copy number was quantified using the genesig Real-Time qRT-PCR Standard Kit (PrimerDesign, UK). The reactions were in a final volume of 20 μL containing 10 μL of the master mix, 1 μL of probe/primer mix, 4 μL of nuclease-free water, and 5 μL of viral RNA template. Quantitative PCR was performed using a CFX96 Touch™ Real-Time PCR Detection System (Bio-Rad, USA.) with the following conditions: 10 min at 55 °C (reverse transcription), 2 min at 95 °C (enzyme activation) followed by 50 cycles of amplification (10 s at 95 °C, 60 s at 60 °C). The viral RNA copy number was determined based on the threshold cycles (Ct) and standard curve generated from known RNA standards.
as §2, §3

DENV-3 [9] = assay: Virucidal assay against extracellular DENV-3, FFURA (foci reduction); format: cell-based, dengue virus; conditions: for IC50: extracellular DENV-3, reduction in virus foci, mean ± SEM; for Viral foci reduction at highest concentration, virucidal assay: silymarin 200 µg/mL, baicalein 100 µg/mL, baicalin 20 µg/mL, DENV-3
Description: as §1, §4, §3

DENV-3 [10] = assay: Virucidal assay against extracellular DENV-3, qRT-PCR (viral RNA copy number); format: cell-based, dengue virus; conditions: for IC50: Dengue virus, DENV3, extracellular DENV-3, reduction in viral RNA copy number, mean ± SEM
Description: as §6, §4, §3

Vero cells [11] = test system: Vero cells; parameters: method as in Moghaddam et al. 15; conditions: ref Moghaddam et al. 15; cited from earlier work
[12] = silymarin 200, baicalein 100, baicalin 20 µg/mL
[13] = Dengue virus, DENV3, post-infection assay
[14] = Dengue virus, DENV3, read-out: Maximum inhibition of intracellular viral progeny infectivity

O=c1cc(-c2ccccc2)oc2cc(O)c(O)c(O)c12 [Baicalein]
Virucidal effect against EVA-71 (EVA-71; silymarin at < 1 min contact, baicalein maximum at 60 min): 60% | Period of contact (co-incubation time) needed for the virucidal effect (EVA-71; silymarin for 65% effect, baicalein for maximum of 60% effect): 60 min | FACS gating percentage (FITC-positive population) (DENV-3 [1]; [12]): 0.44% | Percentage of inhibition of DENV-3 infected cell population (FNT) (DENV-3 [1]; MOI 0.5, 48 h post-infection, silymarin 200, baicalein 100, baicalin 20 µg/mL): 97.92% | IC50 (DENV-3 progeny [2]; [13]): 34.7 ± 6.71 µg/mL (≈ 128 µM) | inhibition at 100 µg/mL (DENV-3 progeny [2]; [14]): 79.7% | Viral infectivity inhibition achieved at 0 min (DENV-3 [3]; 0 min co-incubation, silymarin 200, baicalein 100, baicalin 20 µg/mL): 62.45 ± 3.67% | Viral infectivity inhibition at 60 min co-incubation (maximum) (DENV-3 [3]; 60 min co-incubation, silymarin 200, baicalein 100, baicalin 20 µg/mL): 97.24% | Time taken to achieve 50% viral infectivity inhibition (DENV-3 [3]; [12]): 0 min | Co-incubation time to reach up to 75% viral infectivity inhibition (DENV-3 [3]; silymarin 200, baicalein 100 µg/mL): 15 min | inhibition at 100 µg/mL (DENV-2): 97.2 ± 1.41% | Inhibition of viral entry (DENV-3 [4]; DENV-3 into Vero cells, silymarin 200, baicalein 100, baicalin 20 µg/mL): 57.91 ± 11.65% | inhibition at 100 µg/mL (DENV-4): 80.49 ± 0.26% | Concentrations up to which no significant cytotoxic effects were seen (Vero cells [5]): ≤ 100 µg/mL | MNTD80 (maximum non-toxic dose, 80% of cells viable) (Vero cells [5]): 122.95 ± 2.37 µg/mL | CC50 at 48 h ([6]; Vero cells, MTS assay, 48 h, mean ± SEM, read-out: CC50 (half maximum cytotoxic concentration)): 271 ± 6.57 µg/mL (≈ 1000 µM) | Inhibition of viral attachment (DENV-3 [7]; DENV-3 to Vero cells, silymarin 200, baicalein 100, baicalin 20 µg/mL): 95.59 ± 1.44% | inhibition at 100 µg/mL (DENV-1): 96.7 ± 2.1% | IC50 (DENV-3 progeny [8]): 29.7 ± 12.8 µg/mL (≈ 110 µM) | IC50 (DENV-3 [9]; Dengue virus, DENV3): 12.7 ± 3.49 µg/mL (≈ 47 µM) | inhibition at 100 µg/mL (DENV-3 [9]; Dengue virus, DENV3, read-out: Viral infectivity inhibition, DENV-3): 99.68 ± 0.1% | Viral foci reduction at highest concentration, virucidal assay (DENV-3 [9]): 99.78% | IC50 (DENV-3 [10]): 17.2 ± 2.48 µg/mL (≈ 63.8 µM)

O=C(O)[C@H]1O[C@@H](Oc2cc3oc(-c4ccccc4)cc(=O)c3c(O)c2O)[C@H](O)[C@@H](O)[C@@H]1O [Baicalin]
FACS gating percentage (FITC-positive population) (DENV-3 [1]; [12]): 42.35% | inhibition at 20 µg/mL (DENV-3 [1]; Dengue virus, DENV3, 48 h, read-out: Percentage of inhibition of DENV-3 infected cell population (FNT)): 31.9% | IC50 (DENV-3 progeny [2]; [13]): 5.31 ± 1.96 µg/mL (≈ 11.9 µM) | inhibition at 20 µg/mL (DENV-3 progeny [2]; [14]): 81% | SI (CC50/IC50) against DENV-3 progeny, FFURA (DENV-3 progeny [2]; post-infection assay): 10.29 | inhibition at 20 µg/mL (DENV-3 [3]; Dengue virus, DENV3, 1 h, read-out: Viral infectivity inhibition at 60 min co-incubation (maximum)): 66.9% | Time taken to achieve 50% viral infectivity inhibition (DENV-3 [3]; [12]): 25.8 min | CC50 (Vero cells [11]): 290.9 µg/mL (≈ 652 µM) | inhibition at 20 µg/mL (DENV-3 [4]; Dengue virus, DENV3, Vero, read-out: Inhibition of viral entry): 49.8 ± 8.78% | Concentrations up to which no significant cytotoxic effects were seen (Vero cells [5]): ≤ 20 µg/mL | MNTD80 (maximum non-toxic dose, 80% of cells viable) (Vero cells [5]): 19.15 ± 0.07 µg/mL | CC50 at 48 h [6]: 54.6 ± 0.76 µg/mL (≈ 122 µM) | inhibition at 20 µg/mL (DENV-3 [7]; Dengue virus, DENV3, Vero, read-out: Inhibition of viral attachment): 48.5 ± 9.1% | SI (CC50/IC50) against DENV-3 progeny, qRT-PCR (DENV-3 progeny [8]): 12.06 | IC50 (DENV-3 progeny [8]): 4.53 ± 0.62 µg/mL (≈ 10.1 µM) | IC50 (DENV-3 [9]; Dengue virus, DENV3): 7.38 ± 1.1 µg/mL (≈ 16.5 µM) | SI (CC50/IC50), virucidal assay, FFURA (DENV-3 [9]; extracellular DENV-3): 7.40 | Viral foci reduction at highest concentration, virucidal assay (DENV-3 [9]): 76% | IC50 (DENV-3 [10]): 17.4 ± 6.51 µg/mL (≈ 39 µM) | SI (CC50/IC50), virucidal assay, qRT-PCR (DENV-3 [10]; extracellular DENV-3): 3.14
